Laboratory results: publication PMC4822888, “Subtype-Selective Small Molecule Inhibitors Reveal a Fundamental Role for Nav1.7 in Nociceptor Electrogenesis, Axonal Conduction and Presynaptic Release” (PLoS ONE, 2016)
Values joined by “and” are separate entries in the source; they are usually repeats but may differ in a detail not shown here. Identical values can stand only once.

What was measured:
Dopamine D2 receptor = Dopamine D2 receptor (Homo sapiens, UniProt P14416); assay: Off target activity panel; type: binding; conditions: read-out: Inhibition at test concentration (%)
Choline transporter = Choline transporter (Homo sapiens, UniProt Q9GZV3); assay: Off target activity panel; type: binding; conditions: read-out: Inhibition at test concentration (%)
Urotensin receptor = Urotensin receptor (Homo sapiens, UniProt Q9UKP6); assay: Off target activity panel; type: binding; conditions: read-out: Inhibition at test concentration (%)
PDE4 rolipram binding = assay: Off target activity panel; conditions: 10 µM
Neurokinin NK1 receptor = Neurokinin NK1 receptor (Homo sapiens, UniProt P25103); assay: Off target activity panel; type: binding; conditions: read-out: Inhibition at test concentration (%)
KvLQT = KvLQT (Homo sapiens, UniProt P51787); assay: Blockade of KvLQT potassium channels
Dopamine transporter = Dopamine transporter (Homo sapiens, UniProt Q01959); assay: Off target activity panel; type: binding; conditions: read-out: Inhibition at test concentration (%)
Kappa opioid receptor = Kappa opioid receptor (Homo sapiens, UniProt P41145); assay: Off target panel, functional activity (agonist/antagonist); type: biochemical; conditions: at 10 µM
Cyclooxegenase 2 = Cyclooxegenase 2 (Homo sapiens, UniProt P35354); assay: Off target activity panel; type: biochemical
[1] = tested on: NMDA receptor (phencyclidine site); assay: Off target activity panel; type: binding; conditions: 10 µM
[2] = biological target: Adrenergic alpha 2B receptor (Homo sapiens, UniProt P18089); assay: Off target activity panel; type: binding; conditions: read-out: Inhibition at test concentration (%)
Serotonin 5-HT2C [3] = biological target: T1, Serotonin 5-HT2C (Homo sapiens, UniProt P28335); assay: Off target activity panel (first 5-HT2C line); type: binding; conditions: read-out: Inhibition at test concentration (%)
[4] = tested on: Muscle-type nicotinic receptor; assay: Off target activity panel; type: binding; conditions: 10 µM
Cannabinoid receptor 2 = Cannabinoid receptor 2 (Homo sapiens, UniProt P34972); assay: Off target activity panel; type: binding; conditions: read-out: Inhibition at test concentration (%)
L-type calcium channels = assay: Blockade of L-type calcium channels
Acetylcholinesterase = Acetylcholinesterase (Homo sapiens, UniProt P22303); assay: Off target activity panel; type: biochemical; conditions: read-out: Inhibition at test concentration (%)
p38alpha kinase = p38alpha kinase (Homo sapiens, UniProt Q16539); assay: Off target activity panel; type: biochemical; conditions: read-out: Inhibition at test concentration (%)
[5] = tested on: human DRG neurons (hDRG neurons); assay: Current clamp of action potentials in human DRG neurons; type: cell-based
[6] = Off target activity panel; type: binding; conditions: read-out: Inhibition at test concentration (%)
[7] = biological target: Beta 1 adrenergic receptor (Homo sapiens, UniProt P08588); assay: Off target activity panel; type: binding; conditions: read-out: Inhibition at test concentration (%)
Delta opioid receptor = Delta opioid receptor (Homo sapiens, UniProt P41143); assay: Off target activity panel; type: binding; conditions: read-out: Inhibition at test concentration (%)
[8] = tested on: Calcium channel L-type (dihydropyridine site); assay: Off target activity panel; type: binding; conditions: 10 µM
AMPA receptor = assay: Off target activity panel; type: binding; conditions: 10 µM
Histamine H1 receptor = Histamine H1 receptor (Homo sapiens, UniProt P35367); assay: Off target activity panel; type: binding; conditions: read-out: Inhibition at test concentration (%)
Lyn A kinase = Lyn A kinase (Homo sapiens, UniProt P07948); assay: Off target activity panel; type: biochemical
FLT-1 kinase = FLT-1 kinase (Homo sapiens, UniProt P17948); assay: Off target activity panel; type: biochemical; conditions: read-out: Inhibition at test concentration (%)
Cyclooxygenase 1 = Cyclooxygenase 1 (Homo sapiens, UniProt P23219); assay: Off target activity panel; type: biochemical; conditions: read-out: Inhibition at test concentration (%)
PDE2A = PDE2A (Homo sapiens, UniProt O00408); assay: Off target activity panel; type: biochemical; conditions: read-out: Inhibition at test concentration (%)
Abl kinase receptor = Abl kinase receptor (Homo sapiens, UniProt P00519); assay: Off target activity panel; type: biochemical; conditions: read-out: Inhibition at test concentration (%)
[9] = tested on: Nictotinic acetylcholine receptor; assay: Off target activity panel; type: binding; conditions: 10 µM
[10] = biological target: Melanin-concentrating hormone receptor 1 (Homo sapiens, UniProt Q99705); assay: Off target activity panel; type: binding; conditions: read-out: Inhibition at test concentration (%)
Muscarinic M2 receptor = Muscarinic M2 receptor (Homo sapiens, UniProt P08172); assay: Off target activity panel; type: binding; conditions: read-out: Inhibition at test concentration (%)
[11] = biological target: Angiotensin converting enzyme (Homo sapiens, UniProt P12821); assay: Off target activity panel; type: biochemical; conditions: read-out: Inhibition at test concentration (%)
Histamine H3 receptor = Histamine H3 receptor (Homo sapiens, UniProt Q9Y5N1); assay: Off target activity panel; type: binding; conditions: read-out: Inhibition at test concentration (%)
Serotonin 5-HT2A = Serotonin 5-HT2A (Homo sapiens, UniProt P28223); assay: Off target activity panel; type: binding; conditions: read-out: Inhibition at test concentration (%)
hERG potassium channels = hERG potassium channels (Homo sapiens, UniProt Q12809)
[12] = tested on: Cloride channel (GABA-gated); assay: Off target activity panel; type: binding
Serotonin 5-HT2C [13] = biological target: T1, Serotonin 5-HT2C; assay: Off target activity panel (second 5-HT2C line); type: binding; conditions: read-out: Inhibition at test concentration (%)
PDE5 = PDE5 (Homo sapiens, UniProt O76074); assay: Off target activity panel; type: biochemical; conditions: read-out: Inhibition at test concentration (%)
[14] = biological target: Cholycystokinin 2 (CCKB) receptor (Homo sapiens, UniProt P32239); assay: Off target activity panel; type: binding; conditions: read-out: Inhibition at test concentration (%)
[15] = tested on: human DRG neurons (hDRG neurons); assay: Voltage clamp of TTX-S current in human DRG neurons; type: cell-based
Dopamine D1 receptor = Dopamine D1 receptor (Homo sapiens, UniProt P21728); assay: Off target activity panel; type: binding; conditions: read-out: Inhibition at test concentration (%)
Serotonin 5-HT4 = Serotonin 5-HT4 (Homo sapiens, UniProt Q13639); assay: Off target activity panel; type: binding; conditions: read-out: Inhibition at test concentration (%)
Carbonic anhydrase II = Carbonic anhydrase II (Homo sapiens, UniProt P00918); assay: Off target activity panel; type: biochemical; conditions: read-out: Inhibition at test concentration (%)
[16] = 10 µM, read-out: Inhibition at test concentration (%)

Lyn A kinase, sequence (P07948 whole entry): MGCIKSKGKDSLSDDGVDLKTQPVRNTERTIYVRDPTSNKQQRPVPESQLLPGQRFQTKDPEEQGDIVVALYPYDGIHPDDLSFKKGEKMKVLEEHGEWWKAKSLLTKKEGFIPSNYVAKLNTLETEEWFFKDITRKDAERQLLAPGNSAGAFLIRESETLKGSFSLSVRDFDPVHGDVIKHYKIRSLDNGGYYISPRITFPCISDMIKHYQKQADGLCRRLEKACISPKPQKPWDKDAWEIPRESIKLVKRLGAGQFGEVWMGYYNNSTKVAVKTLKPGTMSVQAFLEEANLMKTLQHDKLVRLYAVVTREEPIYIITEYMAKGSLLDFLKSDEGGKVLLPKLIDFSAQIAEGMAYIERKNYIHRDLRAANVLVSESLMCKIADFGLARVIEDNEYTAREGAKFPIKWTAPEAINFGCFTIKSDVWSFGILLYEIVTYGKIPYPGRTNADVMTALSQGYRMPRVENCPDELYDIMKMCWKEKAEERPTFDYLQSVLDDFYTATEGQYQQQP
Cyclooxegenase 2, sequence (P35354 18-604): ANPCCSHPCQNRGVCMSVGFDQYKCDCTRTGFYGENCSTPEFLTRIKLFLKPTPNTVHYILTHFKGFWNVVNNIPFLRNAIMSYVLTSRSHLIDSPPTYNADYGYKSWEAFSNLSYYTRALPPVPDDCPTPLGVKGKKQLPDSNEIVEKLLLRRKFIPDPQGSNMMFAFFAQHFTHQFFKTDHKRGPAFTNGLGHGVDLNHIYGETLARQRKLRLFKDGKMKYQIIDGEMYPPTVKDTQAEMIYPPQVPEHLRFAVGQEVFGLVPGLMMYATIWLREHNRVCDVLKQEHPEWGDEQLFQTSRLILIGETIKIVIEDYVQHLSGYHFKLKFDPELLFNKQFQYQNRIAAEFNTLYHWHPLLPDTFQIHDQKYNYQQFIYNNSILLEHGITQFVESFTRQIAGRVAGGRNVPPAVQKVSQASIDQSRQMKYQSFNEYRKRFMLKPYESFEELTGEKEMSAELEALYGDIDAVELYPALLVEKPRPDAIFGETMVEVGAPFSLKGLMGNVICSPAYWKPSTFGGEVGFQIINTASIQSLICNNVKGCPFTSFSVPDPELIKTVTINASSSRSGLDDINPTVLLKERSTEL
T1 sequence (P28335 33-458): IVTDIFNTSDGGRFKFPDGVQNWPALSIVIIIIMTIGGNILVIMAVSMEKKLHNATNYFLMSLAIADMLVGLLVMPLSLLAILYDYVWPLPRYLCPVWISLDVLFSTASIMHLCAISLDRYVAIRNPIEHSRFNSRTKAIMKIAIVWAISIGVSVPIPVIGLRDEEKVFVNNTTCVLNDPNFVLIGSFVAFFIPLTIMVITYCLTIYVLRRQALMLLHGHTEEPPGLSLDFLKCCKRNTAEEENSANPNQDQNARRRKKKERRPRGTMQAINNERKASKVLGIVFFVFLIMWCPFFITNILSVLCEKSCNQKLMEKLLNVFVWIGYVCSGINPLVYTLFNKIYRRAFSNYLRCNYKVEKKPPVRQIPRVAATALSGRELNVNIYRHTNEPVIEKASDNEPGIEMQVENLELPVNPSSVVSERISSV
PDE2A, sequence (O00408 whole entry): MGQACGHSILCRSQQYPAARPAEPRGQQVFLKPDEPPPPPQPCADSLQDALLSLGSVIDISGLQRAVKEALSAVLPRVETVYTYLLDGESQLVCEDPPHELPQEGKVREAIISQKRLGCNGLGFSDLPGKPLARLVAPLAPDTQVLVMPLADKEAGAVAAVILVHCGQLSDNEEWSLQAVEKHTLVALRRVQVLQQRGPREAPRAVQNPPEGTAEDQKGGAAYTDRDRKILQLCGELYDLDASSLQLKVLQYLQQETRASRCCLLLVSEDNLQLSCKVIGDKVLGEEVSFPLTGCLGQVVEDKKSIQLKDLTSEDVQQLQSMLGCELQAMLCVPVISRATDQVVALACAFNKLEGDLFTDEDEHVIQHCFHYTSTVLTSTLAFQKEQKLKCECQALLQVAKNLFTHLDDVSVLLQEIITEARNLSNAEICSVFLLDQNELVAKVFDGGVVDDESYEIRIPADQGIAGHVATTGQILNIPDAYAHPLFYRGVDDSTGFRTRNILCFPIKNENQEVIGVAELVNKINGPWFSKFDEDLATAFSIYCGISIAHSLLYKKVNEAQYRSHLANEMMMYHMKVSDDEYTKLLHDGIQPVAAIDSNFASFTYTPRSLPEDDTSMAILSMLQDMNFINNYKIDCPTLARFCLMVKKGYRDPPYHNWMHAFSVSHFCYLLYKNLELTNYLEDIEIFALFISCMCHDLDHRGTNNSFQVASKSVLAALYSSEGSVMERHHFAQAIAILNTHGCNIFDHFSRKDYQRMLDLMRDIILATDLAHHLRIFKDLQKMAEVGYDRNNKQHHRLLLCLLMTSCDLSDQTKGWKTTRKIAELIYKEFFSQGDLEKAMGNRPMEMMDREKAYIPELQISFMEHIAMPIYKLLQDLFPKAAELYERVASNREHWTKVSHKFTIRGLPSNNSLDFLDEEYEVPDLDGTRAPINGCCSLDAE
Serotonin 5-HT4, sequence (Q13639 whole entry): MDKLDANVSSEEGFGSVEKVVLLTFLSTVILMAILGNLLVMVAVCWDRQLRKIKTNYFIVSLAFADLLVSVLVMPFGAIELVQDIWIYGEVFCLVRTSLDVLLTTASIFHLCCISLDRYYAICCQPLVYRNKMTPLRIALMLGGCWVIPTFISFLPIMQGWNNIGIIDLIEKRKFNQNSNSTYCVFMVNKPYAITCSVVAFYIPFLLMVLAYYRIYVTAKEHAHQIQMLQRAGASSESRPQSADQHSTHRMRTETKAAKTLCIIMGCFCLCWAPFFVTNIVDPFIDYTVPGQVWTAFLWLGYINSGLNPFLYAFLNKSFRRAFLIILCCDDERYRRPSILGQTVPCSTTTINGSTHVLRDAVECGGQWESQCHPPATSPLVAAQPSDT
Acetylcholinesterase, sequence (P22303 32-614): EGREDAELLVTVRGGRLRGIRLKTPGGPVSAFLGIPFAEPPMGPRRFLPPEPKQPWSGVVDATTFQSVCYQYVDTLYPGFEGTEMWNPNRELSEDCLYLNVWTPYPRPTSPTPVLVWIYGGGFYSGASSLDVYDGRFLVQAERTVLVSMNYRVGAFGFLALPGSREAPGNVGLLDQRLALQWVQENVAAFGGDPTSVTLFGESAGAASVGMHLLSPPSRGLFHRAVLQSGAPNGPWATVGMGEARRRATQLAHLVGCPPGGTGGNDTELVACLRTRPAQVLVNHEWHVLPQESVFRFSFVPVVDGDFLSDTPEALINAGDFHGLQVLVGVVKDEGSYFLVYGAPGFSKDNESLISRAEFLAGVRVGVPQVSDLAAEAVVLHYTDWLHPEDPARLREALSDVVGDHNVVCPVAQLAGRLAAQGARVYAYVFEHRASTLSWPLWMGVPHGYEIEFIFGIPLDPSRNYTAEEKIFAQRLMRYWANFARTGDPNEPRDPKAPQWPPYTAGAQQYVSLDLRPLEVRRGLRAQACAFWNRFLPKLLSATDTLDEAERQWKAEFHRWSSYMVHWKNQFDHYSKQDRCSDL
Choline transporter, sequence (Q9GZV3 whole entry): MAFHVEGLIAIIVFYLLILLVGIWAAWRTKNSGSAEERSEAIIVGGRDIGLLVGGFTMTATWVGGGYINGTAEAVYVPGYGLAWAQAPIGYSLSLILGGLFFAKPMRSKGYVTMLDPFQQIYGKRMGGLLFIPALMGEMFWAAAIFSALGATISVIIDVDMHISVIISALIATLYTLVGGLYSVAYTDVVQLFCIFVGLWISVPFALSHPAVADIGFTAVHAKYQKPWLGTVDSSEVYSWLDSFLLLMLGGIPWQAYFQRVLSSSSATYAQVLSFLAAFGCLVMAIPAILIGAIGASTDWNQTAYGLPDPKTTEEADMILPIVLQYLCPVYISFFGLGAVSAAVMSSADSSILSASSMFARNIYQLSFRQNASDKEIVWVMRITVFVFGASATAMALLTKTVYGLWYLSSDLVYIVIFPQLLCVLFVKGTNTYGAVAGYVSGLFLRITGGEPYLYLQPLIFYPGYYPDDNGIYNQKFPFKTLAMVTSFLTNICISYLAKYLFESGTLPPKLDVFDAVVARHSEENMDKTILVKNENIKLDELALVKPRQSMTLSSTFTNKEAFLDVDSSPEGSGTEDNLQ
Cholycystokinin 2 (CCKB) receptor, sequence (P32239 whole entry): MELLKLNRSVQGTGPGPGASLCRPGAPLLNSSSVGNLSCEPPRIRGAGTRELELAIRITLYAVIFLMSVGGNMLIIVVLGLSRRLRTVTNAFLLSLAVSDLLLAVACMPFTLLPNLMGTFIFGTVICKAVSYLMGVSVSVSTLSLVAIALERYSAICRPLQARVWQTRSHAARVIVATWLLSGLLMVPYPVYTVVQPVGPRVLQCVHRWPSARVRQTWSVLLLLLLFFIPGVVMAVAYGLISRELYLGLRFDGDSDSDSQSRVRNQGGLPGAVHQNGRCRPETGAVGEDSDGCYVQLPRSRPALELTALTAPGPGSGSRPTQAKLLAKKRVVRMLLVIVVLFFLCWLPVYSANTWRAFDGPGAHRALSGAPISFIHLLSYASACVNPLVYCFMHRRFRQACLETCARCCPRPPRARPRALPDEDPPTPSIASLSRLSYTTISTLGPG
Kappa opioid receptor, sequence (P41145 whole entry): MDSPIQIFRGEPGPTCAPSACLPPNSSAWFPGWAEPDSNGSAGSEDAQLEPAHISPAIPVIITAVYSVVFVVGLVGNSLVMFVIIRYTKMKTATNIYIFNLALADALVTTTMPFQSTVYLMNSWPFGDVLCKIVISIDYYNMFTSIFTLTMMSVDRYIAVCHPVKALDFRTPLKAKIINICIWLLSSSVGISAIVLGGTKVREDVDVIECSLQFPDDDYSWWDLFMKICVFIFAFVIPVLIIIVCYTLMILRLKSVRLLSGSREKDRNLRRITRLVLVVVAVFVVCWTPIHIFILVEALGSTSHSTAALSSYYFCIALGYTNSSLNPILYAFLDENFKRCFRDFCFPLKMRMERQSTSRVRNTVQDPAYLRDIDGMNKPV

Nc1[nH]ncc1-c1cc(Cl)ccc1Oc1cc(F)c(S(=O)(=O)Nc2cscn2)cc1Cl [PF-05089771, 4-[2-(5-amino-1H-pyrazol-4-yl)-4-chlorophenoxy]-5-chloro-2-fluoro-N-(1,3-thiazol-4-yl)benzenesulfonamide]
inhibition at 10 µM (Dopamine D2 receptor): 10% | inhibition at 10 µM (Choline transporter): 18% | inhibition at 10 µM (Urotensin receptor): 32% | Inhibition at test concentration (%) (PDE4 rolipram binding): 10% | inhibition at 10 µM (Neurokinin NK1 receptor): 5% | IC50 (KvLQT): 10 µM | inhibition at 10 µM (Dopamine transporter): 18% | Functional activity (Kappa opioid receptor): no agonist or antagonist activity at 10 µM | inhibition at 10 µM (Cyclooxegenase 2; [16]): 72% | Ki (Cyclooxegenase 2; Cyclooxegenase 2): 5.4 µM | Inhibition at test concentration (%) [1]: -3% | inhibition at 10 µM [2]: 24% | inhibition at 10 µM (Serotonin 5-HT2C [3]): -4% | Inhibition at test concentration (%) [4]: 2% | inhibition at 10 µM (Cannabinoid receptor 2): -5% | IC50 (L-type calcium channels): 10 µM | inhibition at 10 µM (Acetylcholinesterase): 17% | inhibition at 10 µM (p38alpha kinase): 8% | Neurons with action potential block ([5]; 30 nM): 3 out of 7 and 3/7 | Neurons with action potential failure ([5]; 100 nM): 5 out of 8 and 5/8 | inhibition at 10 µM [6]: 64% | inhibition at 10 µM [7]: 12% | inhibition at 10 µM (Delta opioid receptor): 15% | Inhibition at test concentration (%) [8]: 4% | Inhibition at test concentration (%) (AMPA receptor): -13% | inhibition at 10 µM (Histamine H1 receptor): 12% | inhibition at 10 µM (Lyn A kinase; [16]): 51% | Ki (Lyn A kinase; Lyn A kinase): 7.3 µM | inhibition at 10 µM (FLT-1 kinase): 14% | inhibition at 10 µM (Cyclooxygenase 1): 18% | inhibition at 10 µM (PDE2A): 9% | inhibition at 10 µM (Abl kinase receptor): 9% | Inhibition at test concentration (%) [9]: -7% | inhibition at 10 µM [10]: -7% | inhibition at 10 µM (Muscarinic M2 receptor): 3% | inhibition at 10 µM [11]: -4% | inhibition at 10 µM (Histamine H3 receptor): 10% | inhibition at 10 µM (Serotonin 5-HT2A): -2% | IC50 (hERG potassium channels): 10 µM | Inhibition at test concentration (%) ([12]; 10 µM): 54% | Ki ([12]; Cloride channel (GABA-gated)): 8.3 µM | inhibition at 10 µM (Serotonin 5-HT2C [13]): 4% | inhibition at 10 µM (PDE5): 7% | inhibition at 10 µM [14]: 13% | Block of TTX-S current ([15]; 30 nM, in presence of A-803467): 75.5 ± 10.5% | Block of TTX-S current ([15]; 100 nM): complete block | IC50 ([15]; DRG neuron, read-out: IC50 for TTX-S current block): 0.0084 ± 0.0012 µM | inhibition at 10 µM (Dopamine D1 receptor): 0% | inhibition at 10 µM (Serotonin 5-HT4): -7% | inhibition at 10 µM (Carbonic anhydrase II): 21%
